The text below walks through data of patent publication US20030220211A1, “Methods, compositions, and articles for control of malodor produced by urea-containing body fluids” (The Procter & Gamble Company, priority 2000, published 2003).

Assay [1] deals with T1, Urease (Type III from jack beans) (Canavalia ensiformis, UniProt P07374).
T1 construct: purchased Sigma U-1500
The experiment in a line: Ammonia odor detection on paper towel sheets treated with urea and urease solution. To be noted: paper towel sheet, 15 drops CuHEDTA Test Solution (urea 2M/tris + Cu/HEDTA complex solution 125 mM) + 2 drops urease solution; after 30 minutes at room temperature; smell. In kind it is biochemical. The protocol: In such a test, conventional paper towel sheets are treated with both a urea solution and a urease solution. One such sheet serves as a reference sheet; another such sheet is treated with a urease solution which also contains a complex of copper chelated with N-(2-hydroxyethyl)ethylenediamine triacetic acid. After 30 minutes at room temperature, the sheets are evaluated for detectable ammonia order.
Dissolve 2.42 g of trizma-base in about 80 mL H2O deionized, adjust the pH to 7.5 with HCL 1M, bring to 100 mL with H2O deionized.
Dissolve 6 g of Urea in 50 mL of this buffer 0.2M, pH 7.5
Dissolve 2.13 g of CuCl in 50 mL of H2O deionized.
Dissolve 2.15 g of HEDTA in 25 mL of H2O deionized
Cu/HEDTA complex solution (125 mM)
Mix 25 ml of CuCl2 solution (250 mM) with 25 mL HEDTA solution (250 mM)at adjusted with NaOH to pH around 7
Urease solution (10 mg/mL)
Weigh 0.020 g of urease and add 3 mL of tris buffer pH 7.5, 0.2M. This solution is stable for about 1 week provided it is stored at 4° C. in a refrigerator.
10 mL urea 2M/tris+500 mL of H2O deionized buffer.
10 mL Urea 2M/tris+500 mL Cu/TED complex solution buffer (125 mM)
Half of a white BOUNTY™® towel sheet is put in each of two Petri dishes. Into one dish, 15 drops of the reference solution are poured evenly so that the center of the towel sheet is evenly wet. […]

Another assay relates to urine malodor. To be noted: 5 mMol/liter solution, 250 ml sprayed once per day for 11 days over 4 m^2 (105 mg/m^2).

T1 sequence (P07374 whole entry, looked up): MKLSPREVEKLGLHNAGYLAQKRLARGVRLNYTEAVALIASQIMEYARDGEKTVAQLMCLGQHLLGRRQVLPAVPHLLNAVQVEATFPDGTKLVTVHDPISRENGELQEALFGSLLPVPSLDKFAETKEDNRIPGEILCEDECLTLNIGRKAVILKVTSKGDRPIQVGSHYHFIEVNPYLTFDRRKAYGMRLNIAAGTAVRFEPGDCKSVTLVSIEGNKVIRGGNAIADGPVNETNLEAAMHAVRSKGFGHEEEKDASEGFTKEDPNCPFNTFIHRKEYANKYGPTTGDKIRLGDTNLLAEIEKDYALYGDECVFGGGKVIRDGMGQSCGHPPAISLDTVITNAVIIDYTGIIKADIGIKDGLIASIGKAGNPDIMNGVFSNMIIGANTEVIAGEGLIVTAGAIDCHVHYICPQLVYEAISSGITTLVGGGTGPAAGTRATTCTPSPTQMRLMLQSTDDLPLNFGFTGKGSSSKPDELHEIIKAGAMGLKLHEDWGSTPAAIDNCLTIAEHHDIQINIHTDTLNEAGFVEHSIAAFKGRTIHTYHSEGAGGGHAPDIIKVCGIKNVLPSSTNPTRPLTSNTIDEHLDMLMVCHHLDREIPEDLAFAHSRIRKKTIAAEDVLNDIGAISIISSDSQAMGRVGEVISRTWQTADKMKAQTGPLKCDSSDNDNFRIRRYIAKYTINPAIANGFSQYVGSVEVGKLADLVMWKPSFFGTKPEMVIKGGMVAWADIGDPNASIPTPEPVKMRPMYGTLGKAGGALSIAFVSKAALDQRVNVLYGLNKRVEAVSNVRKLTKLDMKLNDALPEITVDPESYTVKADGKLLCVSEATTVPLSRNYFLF
Procedure for urine malodor: A liquid product for treating hard surfaces is prepared and tested by spraying the product on walls, floors and other surfaces surrounding the urinals in a public men's restroom. Product preparation, use and test results are as follows:
A 5 mMol/liter solution of CuHEDTA is prepared from:
1721 mg of HEDTA (trisodium salt hydrate, MW=344.21);
1250 mg of CuSO4 (pentahydrate, MW=250);
1000 ml of deionized water.
Using a spray-gun, 250 ml of this solution is sprayed once per day for 11 days over a 4 m^2 area surrounding the urinals in a public men's restroom.

As for `O=C([O-])CN(CCN(CCO)CC(=O)O)CC(=O)[O-].[Cu+2]` [CuHEDTA, copper salt of N-hydroxyethyl-ethylenediamine-triacetic acid], in assay [1], the detectable ammonia odor entry is on record as “No ammonia odor is detectable”. In addition, the “urine malodor control in the men's restroom” value in the assay with urine malodor is “effectively controlled for the full 11 day period”.
